According to US12454704B2, “Efficient gene delivery tool with a wide therapeutic margin” (priority 2019, dated 2025):

Tests used:
Neuro2a cells [1] = test: Cell viability test via impedance measurement (iCELLigence); type: cell-based, murine
Description: The impedance (alternating current resistance) at the well bottom as real-time cell viability measure of adherent cells was determined by the iCELLigence® device. 8000 Neuro2a cells per well were seeded into two 8-well E-plates L8 and incubated for 24 h in a volume of 800 μL. For transfection toxicity studies 50 μL of reagent was added after the respective volume of culture medium was removed. Each 10 minutes the impedance/viability was measured.
The curves indicated in FIG. 2 represent the results of the following measurements: […]

Neuro2a cells [2] = type: cell-based, murine; settings: 5 μg/mL
Description: To evaluate an enhancement of the transfection efficiency through AG1856 an optical based cytotoxicity assay after transfection with ribosome inactivating proteins (RIPs) was chosen.
As transgenes, 6-His-Agrostin RNA3 (Weise et al. 2020) and 6-His-Saporin 3 (Fabbrini et al. 1997) were cloned via BamHI and XbaI (Agrostin) and via SalI and NheI cleavage into pMC.CMV-MCS-SV40polyA (BioCat GmbH, Heidelberg, Germany) to produce minicircle with ZYCY10P3S2T (Kay et al. 2010). In addition to this, Saporin 3 and Gypsophillin S (Kokorin et al. 2019) were cloned into NTC9385R-BGHpA-Nanoplasmids and synthesized by Nature Technology Corporation (Lincoln, NB, USA) as previously described (Luke et al. 2011).
For 3 wells (96-Well-Plate), 300 ng plasmid DNA were diluted in 25 μL water and mixed with 25 μL of a solution with 2,100 ng Peptide Y (K16GACYGLPHKFCG) (GeneCust, Dudelage, Luxembourg). After an incubation period of 30 min, the nanoplexes were formed automatically. […]
The cytotoxic effect of the different constructs on the cells was measured by a CytoSMART® Omni, a camera-based system which took a photo of the bottom of each well every hour. The CytoSMART® Omni software calculated the confluence which is formed by living cells which are attached to the bottom. So, the cell growth could be monitored for 72 h. […]

Neuro2a cells [3] = test: Cell confluency as a measure of cell viability, determined optically (Cytosmart); type: cell-based, murine; settings: saponin 24 μg/mL applied 24 h after seeding
Description: Murine neuroblastoma cells (Neuro2a cells, ATTC CCL-131™) were cultured in Dulbecco's Modified Eagle's Medium (DMEM), containing 1 g/L D-Glucose, 10% FBS and stable glutamine, at 37° C. and 5% CO2. These cells were then incubated with different saponins to test the cytotoxic effect of the saponins.
The cell confluency as a measure of cell viability was determined optically via cell number calculating algorithms (Cytosmart). The results are depicted in FIGS. 1A to 1D.
Buffer was used in each case as negative control.

Neuro2a cells [4] = test: Cell viability test by MTT assay; type: cell-based, murine; settings: same concentration for all saponins (FIG. 3)
Description: The determination of mitochondrial activity due to the formation of formazan out of MTT served as biochemical method to measure cell viability.

Neuro2a cells [5] = test: Sapofection: transfection efficiency of GFP-encoding PD nanoplexes by flow cytometry; type: cell-based, murine
Description: The PD nanoplexes comprised DNA encoding for the green fluorescent protein (GFP). Therewith, the transfection efficiency could very easily be monitored by detecting the fluorescence of the cells that have been incubated with the corresponding DNA nanoparticles. The corresponding incubation period was chosen to be 48 hours in the present case.
20 mg of positively charged poly-lysine peptides without an integrin-receptor-targeting amino sequence were purchased from Genecust. The vector of p-EGFP-N3, coding for the green fluorescing protein (GFP), was obtained and propagated with DH5α— E. coli cells (1.645 mg/mL). StemMACS™ eGFP mRNA (20 μg) and GFP encoding minicircle DNA (Gene Bank Accession: U55761) were used as further nucleic acids. In order to conduct the transfection, nanoplexes were formulated as follows: The poly-lysine peptides (P) and the p-EGFP-N3 vector (D), were diluted in water (each 50 μL) and mixed thoroughly by fast pipetting in a ratio of 4:1. The nanoplexes were allowed to form in a 30-minute incubation step. Thereafter, the nanoplex suspension was diluted with OptiMEM to a total volume of 1 mL. The commercial transfection reagent Lipofectamin®3000 was formulated as described by the manufacturer.
Neuro2a cells (15,000 cells/well) were seeded in a 24-well-plate with a well volume of 400 μL culture medium and incubated for 24 h. The transfection reagents were formulated as described above and admixed with saponin solution, if required. The culture medium was replaced with the transfection medium with a final amount of 500 ng DNA/RNA. After a 48 h incubation period, the transfection medium was removed, the cells were trypsinized and transferred in a polystyrene tube for flow cytometry (Cytoflex). For each measurement 10,000 cells were acquired. The transfection efficiency was determined by the analysis software Cyflogic (by comparison of the sample plots with the negative control in terms of fluorescence).

Neuro2a cells [6] = type: cell-based, murine; settings: saponin alone, 4 μg/mL
Description: FIGS. 6A and 6B show cell viability tests upon AG1856-mediated delivery of GFP-minicircle-DNA- or RIP-minicircle-DNA-bearing nanoplexes.
Saporin and dianthin are cytotoxic proteins. If the transfection is successful, the transfected cells will die.
The curves depicted in FIG. 6A represent the results of the following measurements: […]

female NMRI nu/nu mice = test: Chronic toxicity (tolerability) study of nanoplasmids (NP) plus AG1856 in vivo; settings: 90 μg per mouse
Description: This study was performed to evaluate the tolerability of combined treatment of nanoplasmids (NP) and AG1856 in Naval Medical Research Institute (NMRI) nu/nu mice.
For the study, female NMRI nu/nu mice were used. Animals were treated with NP+AG1856 at doses of 50 and 90 μg/mouse respectively and after animal recovery in a second round at same doses.

SMILES	toxicity (impedance, real-time cell viability) (Neuro2a cells [1]; positive control, 4 μg/mL)	growth of the cells (normalized confluence) (Neuro2a cells [2]; positive control)	toxic effect (cell confluency as a measure of cell viability) (Neuro2a cells [3])	toxicity (impedance, real-time cell viability) (Neuro2a cells [1]; stepwise increase of AG1856 concentration, 2 to 24 μg/mL)	toxicity-mediated drop of viability (MTT) (Neuro2a cells [4])	proliferation worse than the negative group (normalized confluence) (Neuro2a cells [2]; AG1856 only) [%]	transfection efficiency (Neuro2a cells [5]; GFP-plasmid nanoplexes, saponin increased from working concentration to 24 μg/mL (FIG. 5))	transfection efficiency (Neuro2a cells [5]; PD nanoplexes (GFP DNA), saponin 2 μg/mL, 48 h incubation, versus Lipofectamin3000)	transfection efficiency (Neuro2a cells [5]; PD nanoplexes (GFP DNA), saponin 4 μg/mL or higher, 48 h incubation, versus Lipofectamin3000)	fluorescing cells (flow cytometric analysis) (Neuro2a cells [5]; transfection with GFP minicircle DNA performed with AG1856, n>3 (FIG. 6B))	toxicity (cell viability) (Neuro2a cells [6])	tolerance compared to other saponins (female NMRI nu/nu mice)
COc1ccc(C[C@H](N)C(=O)N[C@H]2[C@@H](O)[C@H](n3cnc4c(N(C)C)ncnc43)O[C@@H]2CO)cc1 [puromycin, reference compound]	toxic	inhibit the growth of the cells instantly	–	–	–	–	–	–	–	–	–	–
CC(=O)OCC1OC(OC2C(O)C(OC3C(OC(=O)C45CCC(C)(C)CC4C4=CCC6C7(C)CCC(OC8OC(C(=O)O)C(O)C(OC9OCC(O)C(O)C9O)C8OC8OC(CO)C(O)C(O)C8O)C(C)(C=O)C7CCC6(C)C4(C)CC5O)OC(C)C(OC4OC(C)C(OC(C)=O)C(OC(C)=O)C4O)C3O)OC(C)C2OC2OCC(O)C(O)C2O)C(O)C(O)C1OC(C)=O (stereo not drawn) [AG1856]	–	–	No distinct toxic effect	no significant toxicity increase	could not be observed	12	even increased efficiency	comparable to that of the gold standard Lipofectamin	even higher than that of Lipofectamin	Four cells out of five	no toxicity	superior tolerance
